Reference: publication PMC8904451, “Novel chalcone-derived pyrazoles as potential therapeutic agents for the treatment of non-small cell lung cancer” (Scientific Reports, 2022)

Tests used:
Format in all cases: cell-based, human
[1] = test system: H460 cells; assay: MTT cell viability assay, H460
Experimental: All the synthesized chalcone-derived pyrazoles were evaluated for their antiproliferative activity against three human non-small cell lung cancer cell lines: A-549, H226, and H460, and a nonmalignant human embryonic kidney cell line HEK293. Cisplatin and 5-fluorouracil (5-FU) were used as a reference. Cells were exposed to a range of PCH concentrations (0.5–100 µM) for 72 h and analyzed by 3-(4,5-dimethylthiazol-2-yl)-2,5-diphenyl-2H-tetrazolium bromide (MTT) assay. The results of the studies are expressed as the IC50 concentration that inhibits 50% growth of cells. […] Following treatment with PCH-1, the viability of all the tested cancer cell lines decreased in a concentration-dependent manner.
The cell viability assay was performed for A-549, H226, H460, and HEK293 cells after treatment with the test compounds by using the 3-(4,5-dimethylthiazol-2-yl)-2,5-diphenyltetrazolium bromide (MTT, Sigma-Aldrich) assay. Briefly, cells were seeded onto 96-well culture plates for attachment. After 24 h, triplicate wells were treated with DMSO (1%) and the agents. After 72 h of incubation at 37 °C in 5% CO2, the MTT solution (0.4 mg/ml) was added to each well. After 2–4 h of incubation, the medium was removed, and the formazan crystals were dissolved in 100 μl of DMSO. The absorption was measured at 450 nm with an ASYS UVM340 microplate reader (Biochrom Ltd.). The 50% inhibitory concentration (IC50) was defined as the concentration that reduced the absorbance of the DMSO-treated wells by 50% of the vehicle. The IC50 values were generated from GraphPad Prism 9 software by plotting the survival curve as a function of dose from 3 independent experiments.

[2] = test system: A-549 cells; assay: Cell cycle distribution by flow cytometry, cells synchronized with double-thymidine block; conditions: synchronized A-549, IC90, prolonged exposure (up to 10 h)
Experimental: Promising antiproliferative properties of PCH-1 led us to further investigate the effect of this compound on cell cycle distribution. Therefore, cell cycle progression was analyzed by quantifying DNA content using flow cytometry. […] To thoroughly analyze the course of the cycle, A-549 cells were synchronized with a double-thymidine block in the G1 phase and treated with IC90 concentration of PCH-1 for the indicated time. Slight alterations of the division cycle were visible after 2 h of incubation with the compound.
Cells were seeded onto tissue culture plates and allowed to attach for 24 h. Unsynchronized cells were treated with PCH-1 or Etoposide at IC90 concentration for 24 and 48 h, while synchronized cells were treated with PCH-1 or Etoposide at IC90 concentration for 2, 4, 6, 8, and 10 h. Synchronization of the cells was performed as described previously by Chen et al.[77]. Next, the cells were trypsinized, fixed in ice-cold 75% ethanol, and stored overnight at − 20 °C. After centrifugation, the cells were rinsed with PBS and stained with […] PI (Sigma-Aldrich) and […] RNaseA (Thermo Fisher) in PBS for 30 min at RT. The distribution of the cells in different phases of the cell cycle was determined by flow cytometry (Guava EasyCyte 8 cell sorter, Merck Millipore) and FlowJo software v10. Each experiment was repeated independently three times.

[3] = test system: A-549 cells; assay: Western blot of apoptotic and EMT-related proteins
Experimental: To investigate the potential molecular mechanisms responsible for PCH-1-induced apoptosis in A-549 cells, we measured the expression of apoptosis-related proteins by western blot analysis. […] Next, we determined the role of the antiapoptotic protein Bcl-2 as well as the proapoptotic proteins Bax and Bid in PCH-1-induced cell death in A-549 cells. […] Additionally, we observed Bid cleavage (48 h: *p < 0.01), which was noted as a reduction in full-length Bid protein.
Epithelial-mesenchymal transition (EMT) plays a crucial role in tumorigenesis by promoting cell motility, migration, and metastasis. Thus, we examined the expression of proteins involved in the EMT process by western blot assays. […] The activity of N-cadherin in A-549 cells was reduced by 45% at 24 h (p = 0.0002) and by 50% at 48 h (p = 0.0002), while vimentin activity was reduced by 43% at 24 h (p = 0.005) and by 46% at 48 h (p = 0.004). Additional PCH-1 inhibited Transforming Growth Factor β1 (TGF-β1) induced mesenchymal-like phenotype in A-549 cells, indicating […] of N-cadherin by 66% at 48 h (p = 0.0003), and another EMT effector β-catenin, which was suppressed by 31% at 24 h (p = 0.0275) and by 66% at 48 h (p = 0.0019).
Cells (1.5 × 10^6) were cultured in tissue culture plates for overnight attachment. The cells were then incubated with IC90 of PCH-1 or 1% DMSO for 6, 24, and 48 h, or were co-treatment with 2.5 ng/ml TGF-β1 (Sigma-Aldrich), and IC90 of PCH-1 or 1% DMSO for 24, and 48 h. Subsequently, the cells were collected and lysed in Laemmli buffer with a protease inhibitor cocktail (Roche) and phosphatase inhibitors [NaF (5 mM), β-glycerophosphate (5 mM), and Na3VO4 (1 mM)]. The cells were then sonicated in triplicate (10 s, 30% amplitude) and centrifuged at 16,000×g at 12 °C for 15 min. Protein concentrations were determined using the DC Protein Assay Kit (Bio-Rad). For determining total protein content, the cellular extract was separated by 10% or 12% sodium dodecyl sulfate–polyacrylamide gel electrophoresis (SDS-PAGE) and transferred onto a microporous polyvinylidene difluoride (PVDF) membrane (Bio-Rad). After blocking with 5% (w/v) BSA (Sigma-Aldrich) in 1 × TBST (pH 7.4 and 0.1% Tween-20) for 1 h, the membranes were incubated overnight with primary antibodies at 4 °C, followed by horseradish peroxidase-conjugated secondary antibodies for 1 h. All the used antibodies are listed in Table S1 in the supplementary information. The immunoreactive signals were detected using an enhanced chemiluminescence (ECL) detection reagent kit (Thermo Fisher) and a ChemiDoc XRS + Imaging System (Bio-Rad). The band intensity was measured using Image Lab 5.2 software (Bio-Rad).

[4] = A-549 co-treated with 2.5 ng/ml TGF-β1, IC90, 48 h

`COc1ccc(C2CC(c3cc4c(cc3OC)OCO4)=NN2C(C)=O)cc1` (stereo not shown) [PCH-1, 1-[3-(6-methoxy-2H-1,3-benzodioxol-5-yl)-5-(4-methoxyphenyl)-4,5-dihydro-1H-pyrazol-1-yl]ethan-1-one] was tested, and the “superior activity to the reference compound Cisplatin, H460” value ([1]; 72 h IC50 ratio) was ~2.6 fold, the IC50 ([1]; Homo sapiens, NCI-H460, 72 h, MTT, read-out: IC50 ± SD, growth inhibition, H460) was 8.4 ± 1.1 µM and the “increase in G2/M population as compared to control” value [2] was 50.12%. For the same compound, the Bcl-2 protein level ([3]; A-549, IC90) was “not changed”, the Bax protein level ([3]; A-549, IC90, 6, 24, 48 h) was “significant increase” and the “expression of hTERT” value ([3]; A-549, IC90, 24 and 48 h) was “significantly decreased”. For the same compound, the “reduction of N-cadherin” value ([3]; A-549, IC90, 24 h) was 45%, the reduction of vimentin ([3]; A-549, IC90, 24 h) was 43% and the “reduction of N-cadherin” value ([3]; A-549, IC90, 48 h) was 50%. The reduction of vimentin ([3]; A-549, IC90, 48 h) was 46%, the “suppression of β-catenin, TGF-β1 induced” value ([3]; A-549 co-treated with 2.5 ng/ml TGF-β1, IC90, 24 h) was 31% and the “reduction of N-cadherin, TGF-β1 induced” value [3, 4] was 66%. The “suppression of β-catenin, TGF-β1 induced” value [3, 4] was 66%.
